Among the data in ChEMBL document CHEMBL1201862, “PubChem BioAssay data set” (2004) are EC50 and IC50 values, retold here.

Calls of active or inactive are those of the source. A value given as a limit tells only on which side of the number the result lay.

Assay [1] deals with T1, Kappa-type opioid receptor (Homo sapiens, UniProt P41145). As to the kind of experiment: SAR analysis of small molecule agonists of the kappa opioid receptor via a luminescent beta-arrestin assay - Set 3. [Related pubchem assays (depositor defined):AID1777, AID1785, AID1786, AID1966, AID2133, AID2136, AID2284, AID2500]. It counts as functional.
Assay [2] in a line: inhibitors of SNCA 5'UTR-driven reporter translation, confirmation, H4 neuroglioma cells, luminescence (AID 1988). It counts as functional, cell-based.
The target in another assay is Tumor necrosis factor (Homo sapiens, UniProt P01375). As to the kind of experiment: TNFa-triggered NF-kB activation inhibitors, SAR follow-up, cell-based, revised (AID 2337). It counts as functional.
For a further assay, the system named is HEK293. As to the kind of experiment: cells. The note with it: Homo sapiens.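 Note: cells exposed to compound for 14 hours overnight before viability readout.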
Assay [3] has as its target Nucleotide-binding oligomerization domain-containing protein 1 (Homo sapiens, UniProt Q9Y239). Description: NOD1 signaling inhibitors, SAR follow-up, revised (AID 2333). It counts as functional.
Assay [4] can be described thus: inhibitors of firefly luciferase expression or activity, dose response, H4 neuroglioma cells, luminescence (AID 1990). It counts as functional, cell-based.
Assay [5] in a line: Luminescence Cell-Based Dose Response HTS to Identify Inhibitors of 5'UTR Stem-Loop Driven Prion Protein mRNA Translation in H4 Neuroglioblastoma Cells. [Related pubchem assays: 1827 (Project Summary), 1813 (Primary HTS)]. It counts as functional.
Assay [6] has as its target T1, Kappa-type opioid receptor. Description: SAR analysis of small molecule agonists of the kappa opioid receptor via a luminescent beta-arrestin assay. [Related pubchem assays (depositor defined):AID1777, AID1786, AID1966, AID2133, AID2136, AID2348, AID2352, AID2357, AID2359, AID2370, AID2420, AID2478, AID2491, AID2492, AID2493, AID2497, AID2498, AID2500, AID449737, AID488822, AID488842]. It counts as functional.

Assay [7] addresses T1, Kappa-type opioid receptor. As to the kind of experiment: KOR antagonists by imaging, SAR follow-up, image-based (AID 2348). It counts as functional.
Assay [8] concerns the target T1, Kappa-type opioid receptor. As to the kind of experiment: KOR agonist analogs, imaging readout, SAR follow-up, image-based (AID 2359). It counts as functional.
Assay [9] has as its target T2, Mu-type opioid receptor (Homo sapiens, UniProt P35372). Description: MOR agonists by imaging, SAR follow-up, image-based (AID 2352). It counts as functional.
Assay [10] has as its target T3, Delta-type opioid receptor (Homo sapiens, UniProt P41143). As to the kind of experiment: DOR antagonists, SAR follow-up, image-based (AID 2357). It counts as functional.
In assay [11] the target is T2, Mu-type opioid receptor. As to the kind of experiment: MOR antagonists, SAR follow-up, image-based (AID 2420).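 Note: compounds added before stimulation of receptor with agonist DAMGO.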 It counts as functional.
Assay [12] deals with T3, Delta-type opioid receptor. Description: DOR agonists, SAR follow-up, image-based (AID 2370). It counts as functional.
The target of assay [13] is T4, Cannabinoid receptor 2 (Homo sapiens, UniProt P34972). As to the kind of experiment: SAR analysis of agonists of the Cannabinoid Receptor 2 using an Image-Based Assay. [Related pubchem assays (depositor defined):AID2013, AID2026]. It counts as functional.
The target of assay [14] is T5, G-protein coupled receptor 55 (Homo sapiens, UniProt Q9Y2T6). Description: GPR55 antagonists blocking LPI-driven arrestin recruitment, primary screen, imaging, U2OS, beta-arrestin-GFP, LPI agonist (AID 2013).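 Note: antagonist potency measured as reduced agonist-driven arrestin aggregation.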 It counts as functional. A general note: Arrestin recruitment assays detect the binding of arrestin to an activated receptor.
Assay [15] deals with T5, G-protein coupled receptor 55. Description: GPR55 antagonist potency of analogs, SAR follow-up, imaging, U2OS, beta-arrestin-GFP, LPI agonist, set 2 (AID 2820). It counts as functional.
Assay [16] addresses T6, G-protein coupled receptor 35 (Homo sapiens, UniProt Q9HC97). As to the kind of experiment: SAR analysis of Agonists of the GPR35 Receptor using an Image-Based Assay - Set 2. [Related pubchem assays (depositor defined):AID2013, AID2026]. It counts as functional.
The target in assay [17] is T7, Short transient receptor potential channel 4 (Mus musculus, UniProt Q9QUQ5).
T7 sequence (Q9QUQ5 whole entry): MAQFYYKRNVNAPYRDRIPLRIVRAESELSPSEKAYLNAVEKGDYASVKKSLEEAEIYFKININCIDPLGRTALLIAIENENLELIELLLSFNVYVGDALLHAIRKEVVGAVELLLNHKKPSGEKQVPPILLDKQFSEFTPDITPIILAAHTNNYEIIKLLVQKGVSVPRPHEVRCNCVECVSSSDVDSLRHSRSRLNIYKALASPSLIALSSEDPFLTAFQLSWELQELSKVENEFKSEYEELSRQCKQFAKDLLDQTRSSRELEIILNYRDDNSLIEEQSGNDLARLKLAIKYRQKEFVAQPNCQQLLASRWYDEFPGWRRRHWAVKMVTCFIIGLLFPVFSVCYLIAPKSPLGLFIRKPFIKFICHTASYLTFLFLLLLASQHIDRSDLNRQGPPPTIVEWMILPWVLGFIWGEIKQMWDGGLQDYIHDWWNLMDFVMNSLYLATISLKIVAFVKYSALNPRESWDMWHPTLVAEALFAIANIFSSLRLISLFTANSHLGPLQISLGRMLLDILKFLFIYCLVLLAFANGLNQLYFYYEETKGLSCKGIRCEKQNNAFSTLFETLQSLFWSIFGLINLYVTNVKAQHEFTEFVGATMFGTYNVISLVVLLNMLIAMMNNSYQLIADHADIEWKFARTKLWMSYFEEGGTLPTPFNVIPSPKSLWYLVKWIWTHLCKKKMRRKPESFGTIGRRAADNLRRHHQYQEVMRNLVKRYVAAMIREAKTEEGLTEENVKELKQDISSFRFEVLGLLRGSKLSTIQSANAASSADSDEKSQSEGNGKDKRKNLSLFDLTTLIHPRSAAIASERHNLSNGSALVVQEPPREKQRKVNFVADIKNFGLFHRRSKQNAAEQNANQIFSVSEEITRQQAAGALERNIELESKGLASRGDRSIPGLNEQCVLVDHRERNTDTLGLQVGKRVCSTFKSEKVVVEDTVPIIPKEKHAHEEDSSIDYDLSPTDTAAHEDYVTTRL
Description: mouse TRPC4 channel inhibitors, dose response, cell-based, HEK293 TRPC4/mu-opioid, Fluo-4 calcium (AID 434942).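 Note: potency of inhibitors blocking the TRPC4 calcium response.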 It counts as functional.

Assay [18] has as its target T8, Cannabinoid receptor 1 (Homo sapiens, UniProt P21554). As to the kind of experiment: SAR analysis of agonists of the Cannabinoid Receptor 1 using an Image-Based Assay - Set 2. [Related pubchem assays (depositor defined):AID2013, AID2026]. It counts as functional.
Assay [19] has as its target T4, Cannabinoid receptor 2. Description: SAR analysis of antagonists of the Cannabinoid Receptor 2 using an Image-Based Assay. [Related pubchem assays (depositor defined):AID2013, AID2026]. It counts as functional.
The target of assay [20] is T6, G-protein coupled receptor 35. Description: SAR analysis of Antagonists of the GPR35 Receptor using an Image-Based Assay - Set 3. [Related pubchem assays (depositor defined):AID2013, AID2026]. It counts as functional.
The target of assay [21] is T8, Cannabinoid receptor 1. Description: SAR analysis of antagonists of the Cannabinoid Receptor 1 using an Image-Based Assay - Set 2. [Related pubchem assays (depositor defined):AID2013, AID2026]. It counts as functional.
Assay [22] is described as follows: inhibitors of Bluetongue virus cytopathic effect, confirmation, arbovirus, BSR cells (AID 1250).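 Note: protection from viral cytopathic effect measured as cell viability by ATP luminescence.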 It counts as functional. On the technique in general: Cytopathic effects are the visible damage that an infection or toxin causes in cultured cells.
The target in assay [23] is T9, Dual specificity protein phosphatase 3 (Homo sapiens, UniProt P51452). Description: VHR1 phosphatase inhibitors, primary screen, biochemical, absorbance, uHTS (AID 1654).
Assay [24] concerns the target T9, Dual specificity protein phosphatase 3. Description: VHR1 phosphatase inhibitors, biochemical (AID 1878).
Assay [25] concerns the target T10, Small ubiquitin-related modifier 1 (Homo sapiens, UniProt P63165). Description: inhibitors of SUMO1 peptide binding, dose response, biochemical, fluorescence polarization, uHTS hits (AID 624382). It counts as functional. The note with it: read-out: IC50_Mean. A general note: In fluorescence polarisation assays a small probe gives low polarisation when free and higher when bound to something large.

Assay [26] deals with T11, Calpain-2 catalytic subunit (Sus scrofa, UniProt P43367).
T11 sequence (P43367 whole entry): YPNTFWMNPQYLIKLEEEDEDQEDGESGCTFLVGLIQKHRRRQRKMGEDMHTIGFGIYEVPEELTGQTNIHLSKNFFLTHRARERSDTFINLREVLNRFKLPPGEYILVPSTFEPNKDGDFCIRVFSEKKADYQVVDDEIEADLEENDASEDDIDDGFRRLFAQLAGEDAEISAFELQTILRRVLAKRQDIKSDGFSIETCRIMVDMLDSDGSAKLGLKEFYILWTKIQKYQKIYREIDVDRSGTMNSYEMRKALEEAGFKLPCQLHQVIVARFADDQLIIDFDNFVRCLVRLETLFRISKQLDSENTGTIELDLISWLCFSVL
Description: pig calpain II inhibitor potency, dose response, biochemical, fluorogenic peptide substrate (AID 1420). It counts as functional.

Assay [27] addresses Eukaryotic translation initiation factor 4E (Mus musculus, UniProt P63073). As to the kind of experiment: eIF4E–eIF4G protein interaction inhibitors, dose response, biochemical, TR-FRET (AID 855).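 Note: potency for disrupting eIF4E binding to eIF4GI seen as loss of FRET.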 It counts as functional.
In assay [28] the target is Dual specificity protein phosphatase 6 (Rattus norvegicus, UniProt Q64346). As to the kind of experiment: MKP-3 phosphatase inhibitors, primary screen, biochemical, rat enzyme, in vitro (AID 425).
Assay [29] concerns the target T10, Small ubiquitin-related modifier 1. Description: inhibitors of SUMO1 partner interactions, dose response, biochemical, FRET (AID 624383). It counts as functional. The note with it: read-out: IC50_Mean.
The target of assay [30] is Sphingosine 1-phosphate receptor 1 (Homo sapiens, UniProt P21453). Description: Fluorescence-based counterscreen assay for S1P4 agonists: Cell-based dose response high throughput screening assay to identify agonists of the Sphingosine 1-Phosphate Receptor 1 (S1P1). [Related pubchem assays (depositor defined):AID1509, AID1523, AID1801, AID463107, AID463118, AID463119, AID463122, AID463123, AID463129, AID463225, AID504400, AID504460]. It counts as functional.

For assay [31], the target named is Sphingosine 1-phosphate receptor 4 (Homo sapiens, UniProt O95977). Description: Fluorescence dose response cell-based high throughput screening assay for agonists of the Sphingosine 1-Phosphate Receptor 4 (S1P4). [Related pubchem assays: 1509 (Primary screen.), 1523 (Confirmation screen in triplicates.)]. It counts as functional.
Chain of Sphingosine 1-phosphate receptor 4 (O95977 whole entry): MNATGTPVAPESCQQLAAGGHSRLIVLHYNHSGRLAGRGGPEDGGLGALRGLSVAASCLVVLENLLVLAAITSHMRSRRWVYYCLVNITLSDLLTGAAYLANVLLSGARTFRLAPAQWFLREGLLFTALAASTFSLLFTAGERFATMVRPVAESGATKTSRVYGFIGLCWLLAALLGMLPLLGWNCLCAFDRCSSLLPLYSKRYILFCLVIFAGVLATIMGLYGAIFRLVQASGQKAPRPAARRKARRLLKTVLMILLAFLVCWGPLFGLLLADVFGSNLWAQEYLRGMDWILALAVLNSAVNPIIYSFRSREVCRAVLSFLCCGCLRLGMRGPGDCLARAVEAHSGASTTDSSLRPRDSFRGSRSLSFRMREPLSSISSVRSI

T1 sequence (P41145 whole entry): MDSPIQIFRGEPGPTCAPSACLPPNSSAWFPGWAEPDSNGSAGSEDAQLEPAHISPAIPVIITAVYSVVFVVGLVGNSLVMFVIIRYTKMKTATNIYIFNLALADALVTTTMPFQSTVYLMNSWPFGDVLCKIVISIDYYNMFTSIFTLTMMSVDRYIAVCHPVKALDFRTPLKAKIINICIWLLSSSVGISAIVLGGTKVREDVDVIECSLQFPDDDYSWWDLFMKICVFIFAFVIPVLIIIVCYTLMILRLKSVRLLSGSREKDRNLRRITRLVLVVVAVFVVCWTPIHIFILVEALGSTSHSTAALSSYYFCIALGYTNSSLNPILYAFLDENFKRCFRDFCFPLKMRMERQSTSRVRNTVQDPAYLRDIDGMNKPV
T9 sequence (P51452 whole entry): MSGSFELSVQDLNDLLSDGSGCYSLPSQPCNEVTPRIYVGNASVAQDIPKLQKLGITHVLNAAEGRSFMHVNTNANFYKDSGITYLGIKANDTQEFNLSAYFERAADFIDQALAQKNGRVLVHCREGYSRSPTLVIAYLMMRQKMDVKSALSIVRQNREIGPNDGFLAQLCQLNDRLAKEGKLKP
T4 sequence (P34972 whole entry): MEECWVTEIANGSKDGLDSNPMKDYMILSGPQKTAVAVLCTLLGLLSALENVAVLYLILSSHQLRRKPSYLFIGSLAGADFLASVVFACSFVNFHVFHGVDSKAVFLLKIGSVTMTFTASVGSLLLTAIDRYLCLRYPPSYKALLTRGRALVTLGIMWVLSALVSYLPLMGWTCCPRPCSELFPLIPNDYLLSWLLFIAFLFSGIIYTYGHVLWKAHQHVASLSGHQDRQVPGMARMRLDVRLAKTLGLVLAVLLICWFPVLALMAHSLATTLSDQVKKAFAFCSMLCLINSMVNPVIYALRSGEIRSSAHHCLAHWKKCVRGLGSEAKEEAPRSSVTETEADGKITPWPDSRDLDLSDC
T3 sequence (P41143 whole entry): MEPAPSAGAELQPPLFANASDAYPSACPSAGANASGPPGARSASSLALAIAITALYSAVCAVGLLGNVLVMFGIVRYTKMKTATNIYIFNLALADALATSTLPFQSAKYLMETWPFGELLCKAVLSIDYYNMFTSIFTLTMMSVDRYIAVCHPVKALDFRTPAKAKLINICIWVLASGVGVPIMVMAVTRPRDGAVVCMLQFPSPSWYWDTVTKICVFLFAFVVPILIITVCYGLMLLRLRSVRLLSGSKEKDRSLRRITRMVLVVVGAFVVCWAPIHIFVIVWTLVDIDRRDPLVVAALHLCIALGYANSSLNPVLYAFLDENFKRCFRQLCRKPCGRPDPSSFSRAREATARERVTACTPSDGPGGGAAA
T8 sequence (P21554 whole entry): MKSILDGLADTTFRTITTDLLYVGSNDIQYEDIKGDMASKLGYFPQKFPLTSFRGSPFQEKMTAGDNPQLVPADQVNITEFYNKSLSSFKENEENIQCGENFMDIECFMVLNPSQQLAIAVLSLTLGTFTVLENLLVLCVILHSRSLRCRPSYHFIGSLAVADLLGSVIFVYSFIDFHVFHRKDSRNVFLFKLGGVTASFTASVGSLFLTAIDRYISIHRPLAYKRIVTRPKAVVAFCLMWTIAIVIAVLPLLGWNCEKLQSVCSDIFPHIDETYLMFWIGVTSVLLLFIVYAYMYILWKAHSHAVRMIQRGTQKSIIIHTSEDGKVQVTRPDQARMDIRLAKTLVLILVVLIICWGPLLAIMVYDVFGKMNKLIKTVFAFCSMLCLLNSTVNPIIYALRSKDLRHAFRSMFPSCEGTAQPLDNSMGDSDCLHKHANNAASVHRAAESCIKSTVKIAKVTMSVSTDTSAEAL
T5 sequence (Q9Y2T6 whole entry): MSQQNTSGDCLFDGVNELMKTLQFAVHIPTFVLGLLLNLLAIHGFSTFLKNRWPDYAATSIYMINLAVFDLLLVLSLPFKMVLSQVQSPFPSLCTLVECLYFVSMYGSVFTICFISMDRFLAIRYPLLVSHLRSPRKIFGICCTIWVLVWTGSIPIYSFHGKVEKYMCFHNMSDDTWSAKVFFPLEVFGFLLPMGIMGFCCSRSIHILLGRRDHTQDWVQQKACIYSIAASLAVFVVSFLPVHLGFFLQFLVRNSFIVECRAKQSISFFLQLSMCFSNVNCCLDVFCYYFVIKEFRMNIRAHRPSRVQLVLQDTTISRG
T6 sequence (Q9HC97 whole entry): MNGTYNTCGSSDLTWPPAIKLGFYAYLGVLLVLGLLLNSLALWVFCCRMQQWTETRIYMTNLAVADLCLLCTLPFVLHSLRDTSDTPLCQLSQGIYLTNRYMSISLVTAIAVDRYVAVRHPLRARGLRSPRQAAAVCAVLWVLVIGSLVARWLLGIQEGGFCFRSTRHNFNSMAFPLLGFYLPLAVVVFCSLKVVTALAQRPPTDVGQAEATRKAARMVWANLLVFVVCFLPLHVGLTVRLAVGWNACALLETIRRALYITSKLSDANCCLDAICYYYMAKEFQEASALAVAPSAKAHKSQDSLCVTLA
T10 sequence (P63165 whole entry): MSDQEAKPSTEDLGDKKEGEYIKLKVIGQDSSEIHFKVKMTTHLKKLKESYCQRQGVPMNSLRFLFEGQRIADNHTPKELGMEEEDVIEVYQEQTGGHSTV
T2 sequence (P35372 whole entry): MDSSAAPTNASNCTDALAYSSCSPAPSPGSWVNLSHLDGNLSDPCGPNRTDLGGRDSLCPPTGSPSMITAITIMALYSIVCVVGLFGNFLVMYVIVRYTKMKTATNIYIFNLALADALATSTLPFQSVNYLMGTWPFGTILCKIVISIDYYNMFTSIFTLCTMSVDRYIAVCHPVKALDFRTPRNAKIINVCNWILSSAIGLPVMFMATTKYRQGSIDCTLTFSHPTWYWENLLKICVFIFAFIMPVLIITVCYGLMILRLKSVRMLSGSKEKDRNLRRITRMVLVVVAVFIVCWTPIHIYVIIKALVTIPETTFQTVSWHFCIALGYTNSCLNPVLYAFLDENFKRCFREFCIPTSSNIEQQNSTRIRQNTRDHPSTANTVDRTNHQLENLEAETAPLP
Chain of Dual specificity protein phosphatase 6 (Q64346 whole entry): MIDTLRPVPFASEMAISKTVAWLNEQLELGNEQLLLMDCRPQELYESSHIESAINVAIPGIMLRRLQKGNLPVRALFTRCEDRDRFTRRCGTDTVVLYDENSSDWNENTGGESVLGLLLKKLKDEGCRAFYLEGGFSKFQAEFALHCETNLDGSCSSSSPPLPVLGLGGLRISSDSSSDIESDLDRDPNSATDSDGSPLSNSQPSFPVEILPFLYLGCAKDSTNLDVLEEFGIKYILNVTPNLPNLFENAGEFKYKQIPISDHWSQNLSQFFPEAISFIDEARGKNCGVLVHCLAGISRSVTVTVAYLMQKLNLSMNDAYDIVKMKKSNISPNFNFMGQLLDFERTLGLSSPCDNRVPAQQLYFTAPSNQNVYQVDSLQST
Chain of Nucleotide-binding oligomerization domain-containing protein 1 (Q9Y239 whole entry, the tested form may be a part): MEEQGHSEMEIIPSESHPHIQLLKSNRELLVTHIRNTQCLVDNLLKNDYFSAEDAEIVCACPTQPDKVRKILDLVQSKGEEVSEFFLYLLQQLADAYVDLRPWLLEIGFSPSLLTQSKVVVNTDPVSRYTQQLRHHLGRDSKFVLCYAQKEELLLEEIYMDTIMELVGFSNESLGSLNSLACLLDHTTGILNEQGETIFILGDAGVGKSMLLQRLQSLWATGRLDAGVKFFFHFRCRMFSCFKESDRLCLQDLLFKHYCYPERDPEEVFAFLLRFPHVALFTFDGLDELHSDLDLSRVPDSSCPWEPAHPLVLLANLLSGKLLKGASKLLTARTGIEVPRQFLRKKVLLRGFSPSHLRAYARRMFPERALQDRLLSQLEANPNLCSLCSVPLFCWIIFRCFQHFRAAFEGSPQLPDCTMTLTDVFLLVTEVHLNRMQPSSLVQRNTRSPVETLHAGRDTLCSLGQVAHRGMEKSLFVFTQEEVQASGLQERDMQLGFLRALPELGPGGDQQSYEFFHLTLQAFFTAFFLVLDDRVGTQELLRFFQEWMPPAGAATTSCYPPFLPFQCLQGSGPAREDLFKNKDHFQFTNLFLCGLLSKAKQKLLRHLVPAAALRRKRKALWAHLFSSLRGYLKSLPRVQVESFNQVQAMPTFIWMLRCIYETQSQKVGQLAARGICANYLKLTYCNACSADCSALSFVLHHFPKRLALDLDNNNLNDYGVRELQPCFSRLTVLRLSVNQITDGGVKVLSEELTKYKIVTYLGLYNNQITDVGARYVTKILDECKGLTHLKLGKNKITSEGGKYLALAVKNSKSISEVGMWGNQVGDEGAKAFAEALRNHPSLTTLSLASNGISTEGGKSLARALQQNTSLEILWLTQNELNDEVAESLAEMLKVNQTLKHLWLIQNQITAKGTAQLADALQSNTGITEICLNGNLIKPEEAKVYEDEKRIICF
Chain of Eukaryotic translation initiation factor 4E (P63073 whole entry): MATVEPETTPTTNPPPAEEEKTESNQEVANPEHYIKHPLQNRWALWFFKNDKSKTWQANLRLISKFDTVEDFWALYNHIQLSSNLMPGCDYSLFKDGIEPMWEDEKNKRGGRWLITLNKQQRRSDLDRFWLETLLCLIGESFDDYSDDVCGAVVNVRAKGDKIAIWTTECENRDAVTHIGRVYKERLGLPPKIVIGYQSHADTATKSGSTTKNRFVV

The term EC50 denotes the concentration needed to bring the measured effect to its halfway point. In the case of `Clc1ccc(CSc2nnc(-c3ccncc3)n2Cc2ccco2)cc1Cl`, the EC50 in [1] was > 20 µM (inactive).
As for `COCCn1c(C)cc(C(=O)COC(=O)c2cccc(O)c2)c1C`, the results for the EC50 in assay [2], in [4] and in assay [5] were 0.137 µM (active), < 0.1 µM (active) and 0.121 µM (active), respectively. Besides, the IC50 on Tumor necrosis factor is 0.704 µM (active); in the assay with HEK293, > 20 µM (inactive); in assay [3] it was 2.5 µM (active).
`O=C(c1ccccn1)N(Cc1ccco1)C1(C(=O)Nc2ccc(Br)cc2)CCCCC1`: the EC50 in [6] was 0.423 µM (active); in assay [8], 0.0983 µM (active); on Mu-type opioid receptor [9] it was > 32 µM (inactive); in assay [12] it was > 32 µM (inactive). The IC50 (in assay [7]; in assay [10]; on Mu-type opioid receptor [11]) was > 32 µM (inactive) throughout.
Turning to `Cc1[nH]nc(-c2ccc(O)cc2O)c1-c1ccc(Cl)cc1`, the EC50 at Cannabinoid receptor 2 [13] was > 32 µM (inactive); in [16] it was > 32 µM (inactive); in assay [17], 5.31 µM (active); on Cannabinoid receptor 1 [18], > 32 µM (inactive). The IC50 in [14] was 3.44 µM (active); in [15], 2.05 µM (active); at Cannabinoid receptor 2 [19], > 32 µM (inactive); in assay [20], > 32 µM (inactive); on Cannabinoid receptor 1 [21] it was > 32 µM (inactive).
Regarding `O=C(CSc1nc(-c2ccc(F)cc2)nc2c1Cc1ccccc1O2)Nc1ccc(C(=O)O)cc1`, the IC50 was 23 µM (active) in assay [22]; 5.02 µM (active) in assay [23]; 4.04 µM (active) in [24]; > 66.6 µM (inactive) in assay [25]; > 50 µM (not active) in assay [26]; 50 µM (inactive) in assay [27]. The IC50 is 10.1 µM (active) in assay [28] and 3.36 µM (active) in assay [29].
For the compound `N#Cc1cc2c(=O)n3ccccc3nc2n(-c2ccccc2Cl)c1=O`, the EC50 in [30] was 10.4 µM (inactive); in [31], 2.88 µM (active); in assay [2] it was 11 µM (active); in assay [4] it was > 120 µM (not active); in [5], > 120 µM (not active).
